Reference: ChEMBL document CHEMBL1150899, “Novel quinone methides from Salacia kraussii with in vitro antimalarial activity” (J Nat Prod, 1998)
In brackets after ≈: the same amount, converted by molar mass.

What was measured:
Plasmodium falciparum [1] = experiment: Antiplasmodial activity against chloroquine-resistant Plasmodium falciparum K1 infected human erythrocytes as [3H]hypoxanthine uptake; format: functional, organism-based
Plasmodium falciparum [2] = experiment: Antiplasmodial activity against chloroquine-sensitive Plasmodium falciparum NF54 infected human erythrocytes as [3H]hypoxanthine uptake; format: functional, organism-based
HT-29 = experiment: Cytotoxicity against human HT-29 cells after 72 hrs by Alamar blue assay; format: functional, cell-based; conditions: HT-29, 72 h
Mus musculus = experiment: Toxicity against Plasmodium berghei-infected mice (Mus musculus) assessed as mortality at 10 mg/kg, subcutaneously after 1 day; format: organism-based; set-up: dose 10 mg/kg, route subcutaneous; conditions: in vivo, sc, 24 h

SMILES: C=C1CC[C@]2(C=O)CC[C@]3(C)C4=CC=C5C(=CC(=O)C(O)=C5C)[C@]4(C)CC[C@@]3(C)[C@@H]2C1
- IC50 (Plasmodium falciparum [1]): 0.094 µg/mL (≈ 0.225 µM)
- IC50 (Plasmodium falciparum [2]): 0.0799 µg/mL (≈ 0.191 µM)

SMILES: COC(=O)[C@]1(C)CC[C@]2(C)CC[C@]3(C)C4=CC=C5C(=CC(=O)C(O)=C5C)[C@]4(C)CC[C@@]3(C)[C@@H]2C1 [PRISTIMERIN]
- IC50 (HT-29): 4.6 µg/mL (≈ 9.9 µM)
- IC50 (Plasmodium falciparum [1]): 0.19 µg/mL (≈ 0.41 µM)
- IC50 (Plasmodium falciparum [2]): 0.271 µg/mL (≈ 0.583 µM)

SMILES: CC1=C(O)C(=O)C=C2C1=CC=C1[C@@]2(C)CC[C@@]2(C)[C@@H]3C[C@H](CO)CC[C@]3(C)CC[C@]12C [ISOIGUESTEROL]
- IC50 (HT-29): 2.43 µg/mL (≈ 5.75 µM)
- IC50 (Plasmodium falciparum [1]): 0.0229 µg/mL (≈ 0.0542 µM)
- IC50 (Plasmodium falciparum [2]): 0.0541 µg/mL (≈ 0.128 µM)

SMILES: CC1=C(O)C(=O)C=C2C1=CC=C1[C@@]2(C)CC[C@@]2(C)[C@@H]3C[C@](C)(C(=O)O)CC[C@]3(C)CC[C@]12C [CELASTROL]
- IC50 (HT-29): 1.3 µg/mL (≈ 2.88 µM)
- IC50 (Plasmodium falciparum [1]): 0.181 µg/mL (≈ 0.401 µM)
- IC50 (Plasmodium falciparum [2]): 0.254 µg/mL (≈ 0.564 µM)

SMILES: C=C1CC[C@]2(C(=O)OC)CC[C@]3(C)C4=CC=C5C(=CC(=O)C(O)=C5C)[C@]4(C)CC[C@@]3(C)[C@@H]2C1
- IC50 (HT-29): 2.38 µg/mL (≈ 5.31 µM)
- IC50 (Plasmodium falciparum [1]): 0.0276 µg/mL (≈ 0.0615 µM)
- Activity (Mus musculus): Toxic
- IC50 (Plasmodium falciparum [2]): 0.0371 µg/mL (≈ 0.0827 µM)

SMILES: C=C1CC[C@]2(CO)CC[C@]3(C)C4=CC=C5C(=CC(=O)C(O)=C5C)[C@]4(C)CC[C@@]3(C)[C@@H]2C1
- IC50 (HT-29): 6.06 µg/mL (≈ 14.4 µM)
- IC50 (Plasmodium falciparum [1]): 0.114 µg/mL (≈ 0.272 µM)
- IC50 (Plasmodium falciparum [2]): 0.14 µg/mL (≈ 0.333 µM)

SMILES: CCN(CC)CCCC(C)Nc1ccnc2cc(Cl)ccc12 (centres undefined) [CHLOROQUINE]
- IC50 (HT-29): 58 µg/mL (≈ 181 µM)
